Drawing on US10716829B2, “Method and composition for treatment of hair loss” (NATIONAL HEALTH RESEARCH INSTITUTES, priority 2015, dated 2020), this text covers numbers of colonies and size of colonies for one compound.

The experiment concerns bulge keratinocytes (CD34+α6+). Kind of experiment: Colony forming assay on sorted CD34+α6+ bulge keratinocytes in absence or presence of DAPT. It counts as cell-based, mouse. The note with it: 10 μM for 7 days, cultured with feeders, vs DMSO-treated cultures; keratinocytes from 8-week-old wild type mice. As for the experimental part:
FIG. 5 is a graph showing quantification of a colony forming assay on sorted CD34+α6+ keratinocytes in the absence or presence of DAFT. Equal numbers of sorted CD34±α6+ keratinocytes from 8-week-old wild type mice were cultured with feeders and treated with either DMSO as a vehicle control or 10 μM DAFT for 7 days. […] P<0.05, **:P<0.01.
We investigated whether the DSB signal seen in Pofut1/Tgfb3-Cre hair follicles was caused by aberrant cell proliferation, which has been reported in the case of oncogene-induced DNA damage checkpoint responses. To test this hypothesis, bulge keratinocytes were isolated from 8 weeks old wild type mice by FACS and cultured in the absence or presence of a γ-secretase inhibitor DAPT (Notch signaling inhibitor).

For `C[C@H](NC(=O)Cc1cc(F)cc(F)c1)C(=O)N[C@H](C(=O)OC(C)(C)C)c1ccccc1` [DAPT], the numbers of colonies entry was “increases” and the size of colonies entry is reported as “increases”.
